Measured values as given in ChEMBL document CHEMBL1909294, “Translating clinical findings into knowledge in drug safety evaluation--drug induced liver injury prediction system (DILIps)” (PLoS Comput Biol, 2011).

What was measured:
Hepatotoxicity [1] = tested on: Hepatotoxicity;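 as to HepSE Combined Scores: combined hepatic side effect score as listed in the training data of the Drug Induced Liver Injury Prediction System (DILIps)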;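 as to HepSE bilirubinemia: bilirubinemia hepatic side effect score drawn from the DILIps training data, a prediction system for drug-induced liver injury; call rule not given here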;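 as to HepSE cholecystitis: Cholecystitis-related hepatic side effect score drawn from the DILIps (drug-induced liver injury prediction) training data set; call rule not given here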;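 as to HepSE cholelithiasis: hepatic side effect score for cholelithiasis, drawn from the DILIps training data for predicting drug-induced liver injury; call rule not given here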; as to HepSE hepatic failure: call rule not given here;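 as to HepSE hepatomegaly: hepatic side effect score for hepatomegaly, taken from the training set of the DILIps drug-induced liver injury prediction system; call rule not given here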; as to HepSE liver disease: call rule not given here
Hepatotoxicity [2] = tested on: Hepatotoxicity; remark: listed apart in the source;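 as to HepSE Combined Scores: combined hepatic side effect score as listed in the training data of the Drug Induced Liver Injury Prediction System (DILIps)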;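 as to HepSE bilirubinemia: bilirubinemia hepatic side effect score drawn from the DILIps training data, a prediction system for drug-induced liver injury; call rule not given here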;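 as to HepSE cholecystitis: Cholecystitis-related hepatic side effect score drawn from the DILIps (drug-induced liver injury prediction) training data set; call rule not given here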;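 as to HepSE cholelithiasis: hepatic side effect score for cholelithiasis, drawn from the DILIps training data for predicting drug-induced liver injury; call rule not given here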; as to HepSE hepatic failure: call rule not given here;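 as to HepSE hepatomegaly: hepatic side effect score for hepatomegaly, taken from the training set of the DILIps drug-induced liver injury prediction system; call rule not given here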; as to HepSE liver disease: call rule not given here
Hepatotoxicity [3] = tested on: Hepatotoxicity; remark: listed apart in the source;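 as to HepSE Combined Scores: combined hepatic side effect score as listed in the training data of the Drug Induced Liver Injury Prediction System (DILIps)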;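 as to HepSE bilirubinemia: bilirubinemia hepatic side effect score drawn from the DILIps training data, a prediction system for drug-induced liver injury; call rule not given here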;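 as to HepSE cholecystitis: Cholecystitis-related hepatic side effect score drawn from the DILIps (drug-induced liver injury prediction) training data set; call rule not given here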;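 as to HepSE cholelithiasis: hepatic side effect score for cholelithiasis, drawn from the DILIps training data for predicting drug-induced liver injury; call rule not given here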; as to HepSE hepatic failure: call rule not given here;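 as to HepSE hepatomegaly: hepatic side effect score for hepatomegaly, taken from the training set of the DILIps drug-induced liver injury prediction system; call rule not given here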; as to HepSE liver disease: call rule not given here
Hepatotoxicity [4] = tested on: Hepatotoxicity; remark: listed apart in the source;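 as to HepSE Combined Scores: combined hepatic side effect score as listed in the training data of the Drug Induced Liver Injury Prediction System (DILIps)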;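 as to HepSE bilirubinemia: bilirubinemia hepatic side effect score drawn from the DILIps training data, a prediction system for drug-induced liver injury; call rule not given here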;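 as to HepSE cholecystitis: Cholecystitis-related hepatic side effect score drawn from the DILIps (drug-induced liver injury prediction) training data set; call rule not given here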;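 as to HepSE cholelithiasis: hepatic side effect score for cholelithiasis, drawn from the DILIps training data for predicting drug-induced liver injury; call rule not given here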; as to HepSE hepatic failure: call rule not given here;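 as to HepSE hepatomegaly: hepatic side effect score for hepatomegaly, taken from the training set of the DILIps drug-induced liver injury prediction system; call rule not given here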
Hepatotoxicity [5] = tested on: Hepatotoxicity; remark: listed apart in the source; as to HepSE hepatic failure: call rule not given here
Hepatotoxicity [6] = tested on: Hepatotoxicity; remark: listed apart in the source; as to HepSE hepatic failure: call rule not given here
Hepatotoxicity [7] = tested on: Hepatotoxicity; remark: listed apart in the source
Hepatotoxicity [8] = tested on: Hepatotoxicity; remark: listed apart in the source
Hepatotoxicity [9] = tested on: Hepatotoxicity; remark: listed apart in the source
Hepatotoxicity [10] = tested on: Hepatotoxicity; remark: listed apart in the source
Hepatotoxicity [11] = tested on: Hepatotoxicity; remark: listed apart in the source
Hepatotoxicity [12] = tested on: Hepatotoxicity; remark: listed apart in the source
Hepatotoxicity [13] = tested on: Hepatotoxicity; remark: listed apart in the source
Hepatotoxicity [14] = tested on: Hepatotoxicity; remark: listed apart in the source

SMILES | HepSE_hepatic failure (Hepatotoxicity [1]) | HepSE_cholecystitis (Hepatotoxicity [2]) | HepSE_cholelithiasis (Hepatotoxicity [3]) | HepSE_bilirubinemia (Hepatotoxicity [4]) | HepSE_hepatomegaly (Hepatotoxicity [5]) | HepSE_Combined Scores (Hepatotoxicity [6]) | HepSE_hepatitis (Hepatotoxicity [7]) | HepSE_liver disease (Hepatotoxicity [8]) | HepSE_jaundice (Hepatotoxicity [9]) | HepSE_liver fatty (Hepatotoxicity [10]) | HepSE_elevated liver function tests (Hepatotoxicity [11]) | HepSE_cirrhosis (Hepatotoxicity [12]) | HepSE_liver function tests abnormal (Hepatotoxicity [13]) | HepSE_hepatic necrosis (Hepatotoxicity [14]) | further results
COC(=O)Nc1nc2ccc(C(=O)c3ccccc3)cc2[nH]1 [MEBENDAZOLE] | 0 | 0 | 0 | 0 | 0 | 1 | 1 | 0 | 0 | 0 | 0 | 0 | 0 | 0 | –
CNC1(C)C2CCC(C2)C1(C)C (stereo unspecified) [MECAMYLAMINE] | 0 | 0 | 0 | 0 | 0 | 0 | 0 | 0 | 0 | 0 | 0 | 0 | 0 | 0 | –
Cc1cccc(CN2CCN(C(c3ccccc3)c3ccc(Cl)cc3)CC2)c1 (stereo unspecified) [MECLIZINE] | 0 | 0 | 0 | 0 | 0 | 0 | 0 | 0 | 0 | 0 | 0 | 0 | 0 | 0 | –
Cc1ccc(Cl)c(Nc2ccccc2C(=O)O)c1Cl [MECLOFENAMIC ACID] | 0 | 0 | 0 | 0 | 0 | 1 | 0 | 0 | 1 | 0 | 0 | 0 | 0 | 0 | –
Cc1cccc(Nc2ccccc2C(=O)O)c1C [MEFENAMIC ACID] | – | – | – | – | – | – | – | – | – | – | – | – | – | – | HepSE_hepatic failure (Hepatotoxicity [1]; Liver): 1; HepSE_cholecystitis (Hepatotoxicity [2]; Liver): 0; HepSE_cholelithiasis (Hepatotoxicity [3]; Liver): 0; HepSE_bilirubinemia (Hepatotoxicity [4]; Liver): 0; HepSE_hepatomegaly (Hepatotoxicity [5]; Liver): 0; HepSE_Combined Scores (Hepatotoxicity [6]; Liver): 3; HepSE_hepatitis (Hepatotoxicity [7]; Liver): 1; HepSE_liver disease (Hepatotoxicity [8]; Liver): 0; HepSE_jaundice (Hepatotoxicity [9]; Liver): 1; HepSE_liver fatty (Hepatotoxicity [10]; Liver): 0; HepSE_elevated liver function tests (Hepatotoxicity [11]; Liver): 0; HepSE_cirrhosis (Hepatotoxicity [12]; Liver): 0; HepSE_liver function tests abnormal (Hepatotoxicity [13]; Liver): 0; HepSE_hepatic necrosis (Hepatotoxicity [14]; Liver): 0
OC(c1cc(C(F)(F)F)nc2c(C(F)(F)F)cccc12)C1CCCCN1 (stereo unspecified) [MEFLOQUINE] | 0 | 0 | 0 | 0 | 0 | 0 | 0 | 0 | 0 | 0 | 0 | 0 | 0 | 0 | –
CC(=O)O[C@]1(C(C)=O)CC[C@H]2[C@@H]3C=C(C)C4=CC(=O)CC[C@]4(C)[C@H]3CC[C@@]21C [MEGESTROL ACETATE] | 0 | 0 | 0 | 0 | 1 | 1 | 0 | 0 | 0 | 0 | 0 | 0 | 0 | 0 | –
Cc1cnc(NC(=O)C2=C(O)c3ccccc3S(=O)(=O)N2C)s1 [MELOXICAM] | 1 | 0 | 0 | 1 | 0 | 4 | 1 | 0 | 1 | 0 | 0 | 0 | 0 | 0 | –
CC12CC3CC(C)(C1)CC(N)(C3)C2 [MEMANTINE] | 1 | 0 | 1 | 0 | 0 | 3 | 1 | 0 | 0 | 0 | 0 | 0 | 0 | 0 | –
